From PMC3444172 (The Journal of organic chemistry, 2012)
Where two headings read alike, the source gives them in different places.

Assays:
[1] = molecular target: M. tuberculosis lumazine synthase (recombinant homopentameric) (Mycobacterium tuberculosis, UniProt P9WHE9); type: biochemical; conditions: for inhibitory activity in words: lumazine synthase inhibition, qualitative statement
[2] = molecular target: M. tuberculosis riboflavin synthase (recombinant) (Mycobacterium tuberculosis, UniProt P9WK35); assay: Kinetic assay of riboflavin synthase inhibitors, M. tuberculosis enzyme; type: biochemical
Sequence of M. tuberculosis riboflavin synthase (recombinant) (P9WK35 whole entry): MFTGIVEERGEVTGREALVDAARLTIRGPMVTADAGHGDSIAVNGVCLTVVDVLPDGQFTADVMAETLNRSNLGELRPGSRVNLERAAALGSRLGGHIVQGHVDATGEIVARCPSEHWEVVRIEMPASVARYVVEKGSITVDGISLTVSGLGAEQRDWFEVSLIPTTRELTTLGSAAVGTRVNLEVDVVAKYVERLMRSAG

[3] = substrate 2 constant, substrate 1 varied, Tris·HCl pH 7.0
[4] = substrate 3 varied, Tris·HCl pH 7.0

Sequence of M. tuberculosis lumazine synthase (recombinant homopentameric) (P9WHE9 whole entry): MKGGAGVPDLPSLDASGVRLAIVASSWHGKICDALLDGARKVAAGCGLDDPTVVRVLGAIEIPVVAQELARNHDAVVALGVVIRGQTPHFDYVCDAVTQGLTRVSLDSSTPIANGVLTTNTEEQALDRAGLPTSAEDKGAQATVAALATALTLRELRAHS

SMILES: O=C(CC(F)(F)F)Nc1c(NC[C@H](O)[C@H](O)[C@H](O)CO)[nH]c(=O)[nH]c1=O [Compound 66, N-(2,4-Dioxo-6-((2S,3S,4R)-2,3,4,5-tetrahydroxypentylamino)-1,2,3,4-tetrahydropyrimidin-5-yl)-3,3,3-trifluoropropanamide]
- Mechanism of inhibition [1]: Partial
- Kcat (rate constant ES → E + P) [1, 3]: 0.76 ± 0.02 m^−1
- Kis (ES + I ⇌ ESI) [1, 3]: 309 ± 125 µM
- Ks (substrate dissociation constant, E + S ⇌ ES) [1, 3]: 20 ± 1 µM
- Mechanism of inhibition [2]: Uncompetitive
- Kcat (rate constant ES → E + P) [2, 4]: 0.18 ± 0.1 m^−1
- Kis (ES + I ⇌ ESI) [2, 4]: > 1000 µM
- Ks (substrate dissociation constant, E + S ⇌ ES) [2, 4]: 6.6 ± 0.3 µM

SMILES: CC(C)C(=O)Nc1c(OC[C@H](O)[C@H](O)[C@H](O)CO)[nH]c(=O)[nH]c1=O [Compound 40]
- Mechanism of inhibition [1]: Uncompetitive
- inhibitory activity in words [1]: totally inactive
- Kcat (rate constant ES → E + P) ([1]; pH 7): 0.59 ± 0.01 m^−1
- Kis (ES + I ⇌ ESI) [1, 3]: 766 ± 97 µM
- Ks (substrate dissociation constant, E + S ⇌ ES) [1, 3]: 16 ± 1 µM
- Mechanism of inhibition [2]: Uncompetitive
- Kcat (rate constant ES → E + P) [2, 4]: 0.84 ± 0.02 m^−1
- Kis (ES + I ⇌ ESI) [2, 4]: 698 ± 108 µM
- Ks (substrate dissociation constant, E + S ⇌ ES) [2, 4]: 9.3 ± 0.6 µM

SMILES: CC(Cl)C(=O)Nc1c(NC[C@H](O)[C@H](O)[C@H](O)CO)[nH]c(=O)[nH]c1=O (stereo partly drawn) [Compound 60, 2-Chloro-N-(2,4-dioxo-6-((2S,3S,4R)-2,3,4,5-tetrahydroxypentylamino)1,2,3,4-tetrahydropyrimidin-5-yl)propanamide]
- Mechanism of inhibition [1]: Competitive
- Kcat (rate constant ES → E + P) [1, 3]: 0.85 ± 0.03 m^−1
- Ks (substrate dissociation constant, E + S ⇌ ES) [1, 3]: 17 ± 1 µM
- Mechanism of inhibition [2]: Competitive
- Kcat (rate constant ES → E + P) [2, 4]: 0.72 ± 0.01 m^−1
- Ks (substrate dissociation constant, E + S ⇌ ES) [2, 4]: 11 ± 1 µM

SMILES: CC1(O)C(=O)Nc2c([nH]c(=O)[nH]c2=O)N1C[C@H](O)[C@H](O)[C@H](O)CO (stereo partly drawn) [Compound 69, 7-Hydroxy-7-methyl-8-[(2S,3S,4R)-2,3,4,5-tetrahydroxypentyl)-7,8-dihydropteridin-2,4,6(1H, 3H, 5H)-trione]
- Mechanism of inhibition [1]: Competitive
- Kcat (rate constant ES → E + P) [1, 3]: 0.59 ± 0.02 m^−1
- Ks (substrate dissociation constant, E + S ⇌ ES) [1, 3]: 19 ± 2 µM
- Mechanism of inhibition [2]: Competitive
- Kcat (rate constant ES → E + P) [2, 4]: 0.67 ± 0.02 m^−1
- Ki (E + I ⇌ EI) [2, 4]: submicromolar
- Ks (substrate dissociation constant, E + S ⇌ ES) [2, 4]: 8.9 ± 0.7 µM

SMILES: C=C(C)C(=O)Nc1c(SC[C@H](O)[C@H](O)[C@H](O)CO)[nH]c(=O)[nH]c1=O [Compound 51]
- Mechanism of inhibition [1]: Competitive
- Kcat (rate constant ES → E + P) ([1]; pH 7): 0.92 ± 0.03 m^−1
- Ks (substrate dissociation constant, E + S ⇌ ES) [1, 3]: 17 ± 1 µM
- Mechanism of inhibition [2]: Uncompetitive
- Kcat (rate constant ES → E + P) [2, 4]: 0.84 ± 0.01 m^−1
- Kis (ES + I ⇌ ESI) [2, 4]: > 1000 µM
- Ks (substrate dissociation constant, E + S ⇌ ES) [2, 4]: 10 ± 0 µM

SMILES: CCC(=O)Nc1c(SC[C@H](O)[C@H](O)[C@H](O)CO)[nH]c(=O)[nH]c1=O [Compound 49]
- Mechanism of inhibition [1]: Competitive
- Kcat (rate constant ES → E + P) ([1]; pH 7): 0.65 ± 0.01 m^−1
- Kis (ES + I ⇌ ESI) [1, 3]: 128 µM
- Ks (substrate dissociation constant, E + S ⇌ ES) [1, 3]: 11 ± 1 µM
- Mechanism of inhibition [2]: Uncompetitive
- Kcat (rate constant ES → E + P) [2, 4]: 0.76 ± 0.01 m^−1
- Kis (ES + I ⇌ ESI) [2, 4]: > 1000 µM
- Ks (substrate dissociation constant, E + S ⇌ ES) [2, 4]: 10 ± 1 µM

SMILES: C=C(C)C(=O)Nc1c(NC[C@H](O)[C@H](O)[C@H](O)CO)[nH]c(=O)[nH]c1=O [Compound 56, N-[2,4-Dioxo-6-((2S,3S,4R)-2,3,4,5-tetrahydroxypentylamino]-1,2,3,4-tetrahydropyrimidin-5-yl)methacrylamide]
- Mechanism of inhibition [1]: Uncompetitive
- inhibitory activity in words [1]: inactive
- Kcat (rate constant ES → E + P) [1, 3]: 0.52 ± 0.02 m^−1
- Ki (E + I ⇌ EI) [1, 3]: > 1 mM
- Kis (ES + I ⇌ ESI) [1, 3]: > 1000 µM
- Ks (substrate dissociation constant, E + S ⇌ ES) [1, 3]: 19 ± 2 µM
- Mechanism of inhibition [2]: Partial
- Kcat (rate constant ES → E + P) [2, 4]: 0.57 ± 0.02 m^−1
- Kis (ES + I ⇌ ESI) [2, 4]: 35 ± 14 µM
- Ks (substrate dissociation constant, E + S ⇌ ES) [2, 4]: 7.0 ± 0.6 µM

SMILES: C=C(C)C(=O)Nc1c(Cl)[nH]c(=O)[nH]c1=O [Compound 78, N-(6-Chloro-2,4-dioxo-1,2,3,4-tetrahydropyrimidin-5-yl)methacrylamide]
- Mechanism of inhibition [1]: Uncompetitive
- Kcat (rate constant ES → E + P) [1, 3]: 0.53 ± 0.03 m^−1
- Kis (ES + I ⇌ ESI) [1, 3]: >1000 µM
- Ks (substrate dissociation constant, E + S ⇌ ES) [1, 3]: 18 ± 2 µM
- Mechanism of inhibition [2]: Uncompetitive
- Kcat (rate constant ES → E + P) [2, 4]: 0.58 ± 0.4 m^−1
- Kis (ES + I ⇌ ESI) [2, 4]: 694 ± 88 µM
- Ks (substrate dissociation constant, E + S ⇌ ES) [2, 4]: 8.6 ± 0.4 µM

SMILES: CCC(=O)Nc1c(OC[C@H](O)[C@H](O)[C@H](O)CO)[nH]c(=O)[nH]c1=O [Compound 43]
- Mechanism of inhibition [1]: Uncompetitive
- inhibitory activity in words [1]: totally inactive
- Kcat (rate constant ES → E + P) ([1]; pH 7): 0.39 ± 0.00 m^−1
- Ks (substrate dissociation constant, E + S ⇌ ES) [1, 3]: 18 ± 2 µM
- Mechanism of inhibition [2]: Uncompetitive
- Kcat (rate constant ES → E + P) [2, 4]: 0.21 ± 0.00 m^−1
- Kis (ES + I ⇌ ESI) [2, 4]: >1000 µM
- Ks (substrate dissociation constant, E + S ⇌ ES) [2, 4]: 4.4 ± 0.2 µM

SMILES: C=C(C)C(=O)Nc1c(OC[C@H](O)[C@H](O)[C@H](O)CO)[nH]c(=O)[nH]c1=O [Compound 46]
- Mechanism of inhibition [1]: Uncompetitive
- Kcat (rate constant ES → E + P) ([1]; pH 7): 0.57 ± 0.01 m^−1
- Ki (E + I ⇌ EI) [1, 3]: > 1 mM
- Kis (ES + I ⇌ ESI) [1, 3]: >1000 µM
- Ks (substrate dissociation constant, E + S ⇌ ES) [1, 3]: 12 ± 1 µM
- Mechanism of inhibition [2]: Uncompetitive
- Kcat (rate constant ES → E + P) [2, 4]: 0.58 ± 0.01 m^−1
- Kis (ES + I ⇌ ESI) [2, 4]: >1000 µM
- Ks (substrate dissociation constant, E + S ⇌ ES) [2, 4]: 9.2 ± 0.6 µM

SMILES: O=C(CCl)Nc1c(NC[C@H](O)[C@H](O)[C@H](O)CO)[nH]c(=O)[nH]c1=O [Compound 63, 2-Chloro-N-(2,4-dioxo-6-((2S,3S,4R)-2,3,4,5-tetrahydroxypentylamino)-1,2,3,4-tetrahydropyrimidin-5-yl)acetamide]
- Mechanism of inhibition [1]: Partial
- Kcat (rate constant ES → E + P) [1, 3]: 0.62 ± 0.02 m^−1
- Kis (ES + I ⇌ ESI) [1, 3]: 53 ± 12 µM
- Ks (substrate dissociation constant, E + S ⇌ ES) [1, 3]: 24 ± 2 µM
- Mechanism of inhibition [2]: Uncompetitive
- Kcat (rate constant ES → E + P) [2, 4]: 0.66 ± 0.01 m^−1
- Kis (ES + I ⇌ ESI) [2, 4]: > 1000 µM
- Ks (substrate dissociation constant, E + S ⇌ ES) [2, 4]: 8.6 ± 0.4 µM
